The supplement of paper PMC5908809

Assays:
KHYG-1 (IL-2 2.5 ng/mL) [1] = experiment: relative IC50 (inflection point of fitted viability curve, relative to fitted max inhibition); higher = less sensitive; conditions: 72 h
Protocol: (§1)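 Drug sensitivity and resistance testing: 5 concentrations over a 10,000-fold range, 72 h at 37 °C, viability by CellTiter-Glo normalised to DMSO and benzethonium chloride controls. IC50 is the inflection point of a logistic fit (min fixed at 0, max fitted), so it is relative to the fitted maximal inhibition. Kept only where fitted max inhibition is at least 50%.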

SNK-6 (IL-2 2.5 ng/mL) [2] = experiment: as above; conditions: 72 h
Protocol: as §1

NKL (IL-2 2.5 ng/mL) [3] = experiment: as above; conditions: 72 h
Protocol: as §1

DERL-7 (IL-2 2.5 ng/mL) [4] = experiment: as above; conditions: 72 h
Protocol: as §1

[5] = test system: normal NK cells expanded with K562-aAPC; experiment: percent inhibition of viability; higher = more inhibition; conditions: 72 h, IL-2 2.5 ng/mL
Protocol: (§2)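 Drug sensitivity and resistance testing on K562-aAPC-expanded normal NK cells: 5 concentrations (10-fold steps over a 10,000-fold range), 72 h at 37 °C, viability by CellTiter-Glo normalised to DMSO and benzethonium chloride controls; DSS from the fitted curve.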

DERL-7 (IL-2 2.5 ng/mL) [6] = experiment: as above; conditions: 72 h
IMC-1 (IL-2 20 ng/mL) [7] = experiment: as above; conditions: 72 h
KAI3 (IL-2 2.5 ng/mL) [8] = experiment: as above; conditions: 72 h
KHYG-1 (IL-2 2.5 ng/mL) [9] = experiment: as above; conditions: 72 h
NK-92 (IL-2 2.5 ng/mL) [10] = experiment: as above; conditions: 72 h
NK-YS (IL-2 2.5 ng/mL) [11] = experiment: as above; conditions: 72 h
NKL (IL-2 2.5 ng/mL) [12] = experiment: as above; conditions: 72 h
SNK-6 (IL-2 2.5 ng/mL) [13] = experiment: as above; conditions: 72 h
YT (IL-2 2.5 ng/mL) [14] = experiment: as above; conditions: 72 h
[15] = test system: normal primary NK cells, pool 1 (3 donors) (IL-2 2.5 ng/mL); experiment: as above; conditions: 72 h
[16] = test system: normal primary NK cells, pool 1 (3 donors), resting (IL-2 0 ng/mL); experiment: as above; conditions: 72 h
[17] = test system: normal primary NK cells, pool 2 (3 donors) (IL-2 2.5 ng/mL); experiment: as above; conditions: 72 h
[18] = test system: normal primary NK cells, pool 3 (3 donors) (IL-2 2.5 ng/mL); experiment: as above; conditions: 72 h
[19] = test system: normal NK cells expanded with K562-aAPC; experiment: drug sensitivity score (DSS) (DSS units); higher = more sensitive; extreme values may be limits of the assay; conditions: 72 h; IL-2 2.5 ng/mL
Protocol: as §2

DERL-7 (IL-2 2.5 ng/mL) [20] = experiment: as above; conditions: 72 h
IMC-1 (IL-2 20 ng/mL) [21] = experiment: as above; conditions: 72 h
KAI3 (IL-2 2.5 ng/mL) [22] = experiment: as above; conditions: 72 h
KHYG-1 (IL-2 2.5 ng/mL) [23] = experiment: as above; conditions: 72 h
NK-92 (IL-2 2.5 ng/mL) [24] = experiment: as above; conditions: 72 h
NK-YS (IL-2 2.5 ng/mL) [25] = experiment: as above; conditions: 72 h
NKL (IL-2 2.5 ng/mL) [26] = experiment: as above; conditions: 72 h
SNK-6 (IL-2 2.5 ng/mL) [27] = experiment: as above; conditions: 72 h
YT (IL-2 2.5 ng/mL) [28] = experiment: as above; conditions: 72 h
[29] = test system: normal primary NK cells, pool 1 (3 donors) (IL-2 2.5 ng/mL); experiment: as above; conditions: 72 h
[30] = test system: normal primary NK cells, pool 1 (3 donors), resting (IL-2 0 ng/mL); experiment: as above; conditions: 72 h
[31] = test system: normal primary NK cells, pool 2 (3 donors) (IL-2 2.5 ng/mL); experiment: as above; conditions: 72 h
[32] = test system: normal primary NK cells, pool 3 (3 donors) (IL-2 2.5 ng/mL); experiment: as above; conditions: 72 h

## CN1CCN(C2CCN(C(=O)Nc3cc(Oc4ccc(NC(=O)C5(C(=O)Nc6ccc(F)cc6)CC5)c(F)c4)ccn3)CC2)CC1 [Golvatinib]
KHYG-1 (IL-2 2.5 ng/mL) [1]
  relative IC50: 715 nM

## C[C@@H](Oc1cc(-c2cnn(C3CCNCC3)c2)cnc1N)c1c(Cl)ccc(F)c1Cl [Crizotinib]
SNK-6 (IL-2 2.5 ng/mL) [2]
  relative IC50: > 1000 nM

## Cc1ccc(NC(=O)c2ccc(CN3CC[C@H](N(C)C)C3)c(C(F)(F)F)c2)cc1Nc1nccc(-c2cncnc2)n1 [Bafetinib]
NKL (IL-2 2.5 ng/mL) [3]
  relative IC50: 136 nM

## O=C(CCBr)N1CCN(C(=O)CCBr)CC1 [Pipobroman]
SNK-6 (IL-2 2.5 ng/mL) [2]
  relative IC50: > 10000 nM

## CC(C)C[C@H](NC(=O)[C@@H](COC(C)(C)C)NC(=O)[C@H](Cc1ccc(O)cc1)NC(=O)[C@H](CO)NC(=O)[C@H](Cc1c[nH]c2ccccc12)NC(=O)[C@H](Cc1cnc[nH]1)NC(=O)[C@@H]1CCC(=O)N1)C(=O)N[C@@H](CCCNC(=N)N)C(=O)N1CCC[C@H]1C(=O)NNC(N)=O [Goserelin]
SNK-6 (IL-2 2.5 ng/mL) [2]
  relative IC50: > 10000 nM

## C[C@]12CC[C@H](O)CC1=CC[C@@H]1[C@@H]2CC[C@]2(C)C(c3cccnc3)=CC[C@@H]12 [Abiraterone]
SNK-6 (IL-2 2.5 ng/mL) [2]
  relative IC50: > 5000 nM

## Cc1nc(Nc2ncc(C(=O)Nc3c(C)cccc3Cl)s2)cc(N2CCN(CCO)CC2)n1 [Dasatinib]
NKL (IL-2 2.5 ng/mL) [3]
  relative IC50: 49.8 nM

## COc1cc2ncnc(Oc3cccc(NC(=O)Nc4cc(C(C)(C)C(F)(F)F)on4)c3)c2cc1OC
SNK-6 (IL-2 2.5 ng/mL) [2]
  relative IC50: > 10000 nM

## O[C@H]1CC[C@H](Nc2ncc3nc(Nc4c(F)cc(F)cc4F)n([C@H]4CCOC4)c3n2)CC1 [Tanzisertib]
SNK-6 (IL-2 2.5 ng/mL) [2]
  relative IC50: > 10000 nM

## COc1cc(C(=O)NC2CCN(C)CC2)c(F)cc1Nc1ncc2c(n1)N(C1CCCC1)CC(F)(F)C(=O)N2C [TAK-960]
DERL-7 (IL-2 2.5 ng/mL) [4]
  relative IC50: > 2500 nM

## CCOc1cc2ncc(C#N)c(Nc3ccc(F)c(Cl)c3)c2cc1NC(=O)/C=C/CN(C)C [Pelitinib] (max concentration tested 2500 nM)
[5]; 0.25 nM
  percent inhibition of viability: -1.17%
[5]; 2.5 nM
  percent inhibition of viability: 1.75%
[5]; 25 nM
  percent inhibition of viability: 2.79%
[5]; 250 nM
  percent inhibition of viability: 36.6%
[5]; 2500 nM
  percent inhibition of viability: 99.5%
DERL-7 (IL-2 2.5 ng/mL) [6]; 0.25 nM
  percent inhibition of viability: -4.83%
DERL-7 (IL-2 2.5 ng/mL) [6]; 2.5 nM
  percent inhibition of viability: -5.06%
DERL-7 (IL-2 2.5 ng/mL) [6]; 25 nM
  percent inhibition of viability: 2.43%
DERL-7 (IL-2 2.5 ng/mL) [6]; 250 nM
  percent inhibition of viability: 41.3%
DERL-7 (IL-2 2.5 ng/mL) [6]; 2500 nM
  percent inhibition of viability: 99.9%
IMC-1 (IL-2 20 ng/mL) [7]; 0.25 nM
  percent inhibition of viability: -0.29%
IMC-1 (IL-2 20 ng/mL) [7]; 2.5 nM
  percent inhibition of viability: 1.94%
IMC-1 (IL-2 20 ng/mL) [7]; 25 nM
  percent inhibition of viability: 3.33%
IMC-1 (IL-2 20 ng/mL) [7]; 250 nM
  percent inhibition of viability: -17.4%
IMC-1 (IL-2 20 ng/mL) [7]; 2500 nM
  percent inhibition of viability: 99.7%
KAI3 (IL-2 2.5 ng/mL) [8]; 0.25 nM
  percent inhibition of viability: -6.96%
KAI3 (IL-2 2.5 ng/mL) [8]; 2.5 nM
  percent inhibition of viability: -4.92%
KAI3 (IL-2 2.5 ng/mL) [8]; 25 nM
  percent inhibition of viability: 1.78%
KAI3 (IL-2 2.5 ng/mL) [8]; 250 nM
  percent inhibition of viability: 40.4%
KAI3 (IL-2 2.5 ng/mL) [8]; 2500 nM
  percent inhibition of viability: 84.1%
KHYG-1 (IL-2 2.5 ng/mL) [9]; 0.25 nM
  percent inhibition of viability: 1.04%
KHYG-1 (IL-2 2.5 ng/mL) [9]; 2.5 nM
  percent inhibition of viability: 0.45%
KHYG-1 (IL-2 2.5 ng/mL) [9]; 25 nM
  percent inhibition of viability: 7.11%
KHYG-1 (IL-2 2.5 ng/mL) [9]; 250 nM
  percent inhibition of viability: 25.7%
KHYG-1 (IL-2 2.5 ng/mL) [9]; 2500 nM
  percent inhibition of viability: 101%
NK-92 (IL-2 2.5 ng/mL) [10]; 0.25 nM
  percent inhibition of viability: -0.1%
NK-92 (IL-2 2.5 ng/mL) [10]; 2.5 nM
  percent inhibition of viability: -2.5%
NK-92 (IL-2 2.5 ng/mL) [10]; 25 nM
  percent inhibition of viability: 13%
NK-92 (IL-2 2.5 ng/mL) [10]; 250 nM
  percent inhibition of viability: 13.8%
NK-92 (IL-2 2.5 ng/mL) [10]; 2500 nM
  percent inhibition of viability: 98.3%
NK-YS (IL-2 2.5 ng/mL) [11]; 0.25 nM
  percent inhibition of viability: 0.78%
NK-YS (IL-2 2.5 ng/mL) [11]; 2.5 nM
  percent inhibition of viability: -5.84%
NK-YS (IL-2 2.5 ng/mL) [11]; 25 nM
  percent inhibition of viability: 0.53%
NK-YS (IL-2 2.5 ng/mL) [11]; 250 nM
  percent inhibition of viability: -1.43%
NK-YS (IL-2 2.5 ng/mL) [11]; 2500 nM
  percent inhibition of viability: 73.7%
NKL (IL-2 2.5 ng/mL) [12]; 0.25 nM
  percent inhibition of viability: -12.4%
NKL (IL-2 2.5 ng/mL) [12]; 2.5 nM
  percent inhibition of viability: -7.42%
NKL (IL-2 2.5 ng/mL) [12]; 25 nM
  percent inhibition of viability: -0.44%
NKL (IL-2 2.5 ng/mL) [12]; 250 nM
  percent inhibition of viability: 15.2%
NKL (IL-2 2.5 ng/mL) [12]; 2500 nM
  percent inhibition of viability: 92.2%
SNK-6 (IL-2 2.5 ng/mL) [13]; 0.25 nM
  percent inhibition of viability: 29.9%
SNK-6 (IL-2 2.5 ng/mL) [13]; 2.5 nM
  percent inhibition of viability: 30.9%
SNK-6 (IL-2 2.5 ng/mL) [13]; 25 nM
  percent inhibition of viability: 23.3%
SNK-6 (IL-2 2.5 ng/mL) [13]; 250 nM
  percent inhibition of viability: 32.9%
SNK-6 (IL-2 2.5 ng/mL) [13]; 2500 nM
  percent inhibition of viability: 95.6%
YT (IL-2 2.5 ng/mL) [14]; 0.25 nM
  percent inhibition of viability: 4.94%
YT (IL-2 2.5 ng/mL) [14]; 2.5 nM
  percent inhibition of viability: 2.25%
YT (IL-2 2.5 ng/mL) [14]; 25 nM
  percent inhibition of viability: 8.23%
YT (IL-2 2.5 ng/mL) [14]; 250 nM
  percent inhibition of viability: 7.75%
YT (IL-2 2.5 ng/mL) [14]; 2500 nM
  percent inhibition of viability: 51.7%
[15]; 0.25 nM
  percent inhibition of viability: 3.39%
[15]; 2.5 nM
  percent inhibition of viability: -4.76%
[15]; 25 nM
  percent inhibition of viability: 4.88%
[15]; 250 nM
  percent inhibition of viability: 39%
[15]; 2500 nM
  percent inhibition of viability: 94.2%
[16]; 0.25 nM
  percent inhibition of viability: 4.48%
[16]; 2.5 nM
  percent inhibition of viability: -8.29%
[16]; 25 nM
  percent inhibition of viability: 4.76%
[16]; 250 nM
  percent inhibition of viability: 14.7%
[16]; 2500 nM
  percent inhibition of viability: 82.3%
[17]; 0.25 nM
  percent inhibition of viability: -10.8%
[17]; 2.5 nM
  percent inhibition of viability: 5.08%
[17]; 25 nM
  percent inhibition of viability: 7.69%
[17]; 250 nM
  percent inhibition of viability: 43%
[17]; 2500 nM
  percent inhibition of viability: 91.3%
[18]; 0.25 nM
  percent inhibition of viability: -8.11%
[18]; 2.5 nM
  percent inhibition of viability: -2.18%
[18]; 25 nM
  percent inhibition of viability: 2.55%
[18]; 250 nM
  percent inhibition of viability: 19.3%
[18]; 2500 nM
  percent inhibition of viability: 94.4%
[19]
  drug sensitivity score: 10.3
DERL-7 (IL-2 2.5 ng/mL) [20]
  drug sensitivity score: 10.7
IMC-1 (IL-2 20 ng/mL) [21]
  drug sensitivity score: 4.58
KAI3 (IL-2 2.5 ng/mL) [22]
  drug sensitivity score: 9.6
KHYG-1 (IL-2 2.5 ng/mL) [23]
  drug sensitivity score: 9.44
NK-92 (IL-2 2.5 ng/mL) [24]
  drug sensitivity score: 7.76
NK-YS (IL-2 2.5 ng/mL) [25]
  drug sensitivity score: 3.95
NKL (IL-2 2.5 ng/mL) [26]
  drug sensitivity score: 7.63
SNK-6 (IL-2 2.5 ng/mL) [27]
  drug sensitivity score: 16.3
YT (IL-2 2.5 ng/mL) [28]
  drug sensitivity score: 4.06
[29]
  drug sensitivity score: 9.9
[30]
  drug sensitivity score: 6.98
[31]
  drug sensitivity score: 10.1
[32]
  drug sensitivity score: 8.33
